Results taken from patent US6706663B2, “Herbicidal 3-heterocyclic substituted benzisothiazole and benzisoxazole compounds” (Wyeth, priority 2000, dated 2004).

Tests used:
GALAP (Galium aparine) = experiment: Postemergence herbicidal evaluation; format: in vivo; conditions: postemergence
Summary of the method: (§1)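 Visual 0–9 injury scores versus control plants, covering stand, vigour, malformation, size, chlorosis and general appearance, taken four to five weeks post-spray and averaged over replicate tests. Plants were sprayed at roughly two weeks old and held on greenhouse benches.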

[1] = system: CASOB (Cassia obtusifolia); experiment: Preemergence herbicidal evaluation; format: in vivo, L.; conditions: rated 4-5 weeks after treatment
Summary of the method: (§2)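 Rating 0–9, visual, vs control; 4–5 wk after spraying seeded cups with compound in aq. acetone; conventional greenhouse care.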

[2] = system: CHEAL (Chenopodium album); experiment: Preemergence herbicidal evaluation; format: in vivo, L.; conditions: rated 4-5 weeks after treatment
Summary of the method: as §2

[3] = system: AMBEL (Ambrosia artemisifolia); experiment: Preemergence herbicidal evaluation; format: in vivo, L.; conditions: rated 4-5 weeks after treatment
Summary of the method: as §2

ORYSAT (Rice, Tebonnet) [4] = experiment: Flooded paddy, post-transplant rice tolerance; format: in vivo, Oryza sativa, (L.) Tebonnet; conditions: flooded paddy, post-transplant rice, rated 3-4 weeks after treatment, 0-9 rating scale
Summary of the method: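 Two ten-day-old seedlings were transplanted into silt loam, flooded and held at 1.5 to 3 cm water above the soil before herbicide treatment. Pots stayed in the greenhouse at that water level. Injury was scored visually on a 0-9 scale versus untreated control.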

[5] = system: ABUTH (Abutilon theophrasti); experiment: Postemergence herbicidal evaluation; format: in vivo, Medic.; conditions: postemergence
Summary of the method: as §1

[6] = system: GLXMAW (Soybean, Williams); experiment: Postemergence herbicidal evaluation; format: in vivo, Glycine max, (L.) Merr. cv Williams; conditions: postemergence
Summary of the method: as §1

SETVI (Setaria viridis) [7] = experiment: Postemergence herbicidal evaluation; format: in vivo, (L.) Beau; conditions: postemergence
Summary of the method: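 Visual injury score (0-9: stand, vigor, malformation, size, chlorosis, overall appearance vs untreated control) taken four to five weeks post-spray. Two-week-old seedlings received about 0.0040 to 1.000 kg/ha active compound in acetone/water with 0.5% TWEEN 20.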

[8] = system: SAGPY (Sagittaria pygmaea); experiment: Flooded paddy, preemergence weed control; format: in vivo, L.; conditions: rated 3-4 weeks after treatment, 0-9 rating scale
Summary of the method: (§3)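 Visual 0–9 ratings versus controls scored stand, vigor, malformation, size, chlorosis and overall appearance. Plants grew from seeds or propagating organs sown 0.5 cm deep in silt loam, with water held 1.5–3 cm above the soil for the whole test under greenhouse care.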

ZEAMX (Corn, Field) = experiment: Postemergence herbicidal evaluation; format: in vivo, Zea mays, L.; conditions: postemergence
Summary of the method: as §1

ORYSAT (Rice, Tebonnet) [9] = experiment: Preemergence herbicidal evaluation; format: in vivo, Oryza sativa, (L.) Tebonnet; conditions: rated 4-5 weeks after treatment
[10] = system: ECHCG (Echinochloa crus-galli); experiment: Postemergence herbicidal evaluation; format: in vivo, (L.) Beau; conditions: postemergence
Summary of the method: as §1

ORYSAT (Rice, Tebonnet) [11] = experiment: Postemergence herbicidal evaluation; format: in vivo, Oryza sativa, (L.) Tebonnet; conditions: postemergence
Summary of the method: as §1

SETVI (Setaria viridis) [12] = experiment: Preemergence herbicidal evaluation; format: in vivo, (L.) Beau; conditions: rated 4-5 weeks after treatment
Summary of the method: as §2

[13] = system: ECHCG (Echinochloa crus-galli); experiment: Preemergence herbicidal evaluation; format: in vivo, (L.) Beau; conditions: rated 4-5 weeks after treatment
Summary of the method: as §2

[14] = system: ECHORC (Echinochloa oryzoides); experiment: Flooded paddy, preemergence weed control; format: in vivo, Echinochloa oryzoides (Ard.) Fritsch.; conditions: rated 3-4 weeks after treatment, 0-9 rating scale
Summary of the method: as §3

[15] = system: MOOVA (Monochoria vaginalis); experiment: Flooded paddy, preemergence weed control; format: in vivo, Presl.; conditions: rated 3-4 weeks after treatment, 0-9 rating scale
Summary of the method: as §3

[16] = system: IPOHE (Ipomoea hederacea); experiment: Postemergence herbicidal evaluation; format: in vivo, (L.) Jacq.; conditions: postemergence
Summary of the method: as §1

CYPIR (Cyperus iria) = experiment: Flooded paddy, preemergence weed control; format: in vivo; conditions: rated 3-4 weeks after treatment, 0-9 rating scale
Summary of the method: as §3

[17] = system: IPOHE (Ipomoea hederacea); experiment: Preemergence herbicidal evaluation; format: in vivo, (L.) Jacq.; conditions: rated 4-5 weeks after treatment

Cn1c(C(F)(F)F)cc(=O)n(-c2ccc3snc(C4OC(C)(C)C(C)(C)O4)c3c2)c1=O [Compound 56, 1-methyl-3-[3-(4,4,5,5-tetramethyl-1,3-dioxolan-2-yl)-1,2-benzisothiazol-5-yl]-6-(trifluoromethyl)uracil] was tested, and the GALAP herbicidal rating (GALAP (Galium aparine); rate 0.0320 kg/ha) was 3.0, the GALAP herbicidal rating (GALAP (Galium aparine); rate 0.0620 kg/ha) was 3.0 and the “Preemergence herbicidal rating CASOB” value ([1]; Rate 0.0620 kg/ha) was 4.5. The “Preemergence herbicidal rating CASOB” value ([1]; Rate 0.1250 kg/ha) was 5.5, the “Preemergence herbicidal rating CASOB” value ([1]; Rate 0.2500 kg/ha) was 9.0 and the “Preemergence herbicidal rating CHEAL” value ([2]; Rate 0.0620 kg/ha) was 9.0. For the same compound, the “Preemergence herbicidal rating CHEAL” value ([2]; Rate 0.1250 kg/ha) was 9.0, the “Preemergence herbicidal rating CHEAL” value ([2]; Rate 0.2500 kg/ha) was 9.0 and the “Preemergence herbicidal rating AMBEL” value ([3]; Rate 0.0620 kg/ha) was 9.0. The “Preemergence herbicidal rating AMBEL” value ([3]; Rate 0.1250 kg/ha) was 9.0, the “Preemergence herbicidal rating AMBEL” value ([3]; Rate 0.2500 kg/ha) was 9.0 and the “herbicidal rating, ORYSAT (rice tolerance)” value (shortened to “herbicidal rating, ORYSAT”) (ORYSAT (Rice, Tebonnet) [4]; rate 0.0080 kg/ha) was 1.0. The “herbicidal rating, ORYSAT” value (ORYSAT (Rice, Tebonnet) [4]; rate 0.0320 kg/ha) was 4.3, the “herbicidal rating, ORYSAT” value (ORYSAT (Rice, Tebonnet) [4]; rate 0.1250 kg/ha) was 8.0 and the ABUTH herbicidal rating ([5]; rate 0.0320 kg/ha) was 9.0. It also gave an ABUTH herbicidal rating ([5]; rate 0.0620 kg/ha) of 9.0, a GLXMAW herbicidal rating ([6]; rate 0.0320 kg/ha) of 6.0 and a GLXMAW herbicidal rating ([6]; rate 0.0620 kg/ha) of 6.5. The SETVI herbicidal rating (SETVI (Setaria viridis) [7]; rate 0.0320 kg/ha) was 2.0, the SETVI herbicidal rating (SETVI (Setaria viridis) [7]; rate 0.0620 kg/ha) was 4.0 and the “herbicidal rating, SAGPY” value ([8]; rate 0.0080 kg/ha) was 0.0. The “herbicidal rating, SAGPY” value ([8]; rate 0.0320 kg/ha) was 0.0, the “herbicidal rating, SAGPY” value ([8]; rate 0.1250 kg/ha) was 6.3 and the ZEAMX herbicidal rating (ZEAMX (Corn, Field); rate 0.0320 kg/ha) was 5.0. The ZEAMX herbicidal rating (ZEAMX (Corn, Field); rate 0.0620 kg/ha) was 5.5, the “Preemergence herbicidal rating ORYSAT” value (ORYSAT (Rice, Tebonnet) [9]; Rate 0.0620 kg/ha) was 5.0 and the “Preemergence herbicidal rating ORYSAT” value (ORYSAT (Rice, Tebonnet) [9]; Rate 0.1250 kg/ha) was 6.0. The “Preemergence herbicidal rating ORYSAT” value (ORYSAT (Rice, Tebonnet) [9]; Rate 0.2500 kg/ha) was 6.0, the ECHCG herbicidal rating ([10]; rate 0.0320 kg/ha) was 2.0 and the ECHCG herbicidal rating ([10]; rate 0.0620 kg/ha) was 4.0. For the same compound, the ORYSAT herbicidal rating (ORYSAT (Rice, Tebonnet) [11]; rate 0.0320 kg/ha) was 3.5, the ORYSAT herbicidal rating (ORYSAT (Rice, Tebonnet) [11]; rate 0.0620 kg/ha) was 4.5 and the “Preemergence herbicidal rating SETVI” value (SETVI (Setaria viridis) [12]; Rate 0.0620 kg/ha) was 8.5. For the same compound, the “Preemergence herbicidal rating SETVI” value (SETVI (Setaria viridis) [12]; Rate 0.1250 kg/ha) was 9.0, the “Preemergence herbicidal rating SETVI” value (SETVI (Setaria viridis) [12]; Rate 0.2500 kg/ha) was 9.0 and the “Preemergence herbicidal rating ECHCG” value ([13]; Rate 0.0620 kg/ha) was 9.0. For the same compound, the “Preemergence herbicidal rating ECHCG” value ([13]; Rate 0.1250 kg/ha) was 9.0, the “Preemergence herbicidal rating ECHCG” value ([13]; Rate 0.2500 kg/ha) was 9.0 and the “herbicidal rating, ECHORC” value ([14]; rate 0.0080 kg/ha) was 9.0. The “herbicidal rating, ECHORC” value ([14]; rate 0.0320 kg/ha) was 9.0, the “herbicidal rating, ECHORC” value ([14]; rate 0.1250 kg/ha) was 9.0 and the “herbicidal rating, MOOVA” value ([15]; rate 0.0080 kg/ha) was 9.0. For the same compound, the “herbicidal rating, MOOVA” value ([15]; rate 0.0320 kg/ha) was 9.0, the “herbicidal rating, MOOVA” value ([15]; rate 0.1250 kg/ha) was 9.0 and the IPOHE herbicidal rating ([16]; rate 0.0320 kg/ha) was 9.0. The IPOHE herbicidal rating ([16]; rate 0.0620 kg/ha) was 9.0, the “herbicidal rating, CYPIR” value (CYPIR (Cyperus iria); rate 0.0080 kg/ha) was 6.0 and the “herbicidal rating, CYPIR” value (CYPIR (Cyperus iria); rate 0.0320 kg/ha) was 8.0. The “herbicidal rating, CYPIR” value (CYPIR (Cyperus iria); rate 0.1250 kg/ha) was 9.0, the “Preemergence herbicidal rating IPOHE” value ([17]; Rate 0.0620 kg/ha) was 7.5 and the “Preemergence herbicidal rating IPOHE” value ([17]; Rate 0.1250 kg/ha) was 7.5. For the same compound, the “Preemergence herbicidal rating IPOHE” value ([17]; Rate 0.2500 kg/ha) was 9.0.
